How the values were obtained:
wheat = assay: Induced resistance of wheat to drought stress (25% PEG-6000); assay type: in vivo; conditions: for Drought injury index / Dry weight Overground part / Dry weight Underground part / Fresh weight Overground part / Fresh weight Underground part / Length of root: wheat, 25% PEG-6000 6 days, 7 days recovery
Protocol: Wheat was cultured in water in a 6-mesh sieve used as a container according to 50 grains per sieve, and ½ Hoagland nutrient solution was changed every three days. When the wheat grew to the stage of two leaves and one bud, the leaf surface was sprayed with 2-amino-3-methylhexanoic acid solutions, the concentration of the 2-amino-3-methylhexanoic acid was 0, 100 and 1,000 nM, and 0.02% Tween 20 was added as a surfactant. After two days of continuous spraying, the water culture nutrient solution was replaced with ½ Hoagland nutrient solution containing 25% PEG-6000 on the 3rd day for stress treatment. After 6 days of drought stress, rehydration treatment was conducted. After 7 days of recovery growth in a normal nutrient solution, the drought index was observed and determined, and the root length and biomass were determined.
The performance characteristics of drought injury of leaves are similar to those of salt injury. The drought injury rate and the drought injury index were introduced by using the evaluation indexes of salt injury. The formula for calculating the drought injury index is as follows, and the grading standard of drought injury is shown in Table 11.

tea variety Longjing 43 = assay: Field test: resistance of tea plants to high temperature and tea quality; assay type: in vivo; conditions: for Amino acid content: 5th day after use, tea leaves under high temperature stress; for Heat injury rate: 10th day after use, field; for PIABS: field heat stress
Protocol: In August 2020, a field test was conducted in the Sun Yat-sen Mausoleum Tea Garden in Nanjing, and the tea variety was Longjing 43. During the test, the actual temperature of the field was 37.6° C.-45.1° C., the concentration of 2-amino-3-methylhexanoic acid was 0, 10, 100, 1,000 and 10,000 nM, and 0.02% Tween 20 was added as a surfactant. Three repetitions were set for each treatment group. In a plot area of 20 m^2, the liquid spraying volume per plot was 2 L. The pesticide was applied to the field three times on August 6, August 8 and Aug. 15, 2020 respectively. On the 3rd, 7th and 14th days after the last use of the pesticide, the phenotype of a tea tree was observed, and a leaf and a bud were sampled from the top of the tea tree. 15 leaves were taken for each treatment group, and the chlorophyll fluorescence parameter PIABS ([…]) of tea leaves was determined with a plant efficiency analyzer Handy-PEA. Samples were taken and the total amino acid content in tea leaves was determined on the 5th day after use of the pesticide, and the heat injury rate was calculated on the 10th day after use of the pesticide.

[1] = 1,000 nM, wheat seedlings, drought stress

SMILES: CCCC(C)C(N)C(=O)O (stereo not shown) [2-amino-3-methylhexanoic acid]
- Drought injury index (wheat; 100 nM): 50%
- Dry weight Overground part (wheat; 100 nM): 0.79 ± 0.01a
- Dry weight Underground part (wheat; 100 nM): 0.34 ± 0.02a
- Fresh weight Overground part (wheat; 100 nM): 6.71 ± 0.69b
- Fresh weight Underground part (wheat; 100 nM): 3.48 ± 0.40a
- Length of root (wheat; 100 nM): 13.83 ± 0.26b
- Decrease of drought index (wheat; [1]): 36%
- Increase of dry weight of aboveground part (wheat; [1]): 10.00%
- Increase of dry weight of underground part (wheat; [1]): 18.75%
- Increase of fresh weight of aboveground part (wheat; [1]): 35.82%
- Increase of fresh weight of underground part (wheat; [1]): 34.33%
- Increase of root length compared with control group (wheat; [1]): 6%
- Drought injury index (wheat; 1,000 nM): 30%
- Dry weight Overground part (wheat; 1,000 nM): 0.88 ± 0.05a
- Dry weight Underground part (wheat; 1,000 nM): 0.38 ± 0.02a
- Fresh weight Overground part (wheat; 1,000 nM): 8.72 ± 0.59a
- Fresh weight Underground part (wheat; 1,000 nM): 4.46 ± 0.01a
- Length of root (wheat; 1,000 nM): 14.50 ± 0.27a
- Amino acid content (tea variety Longjing 43; 10 nM): 2.03 ± 0.05b % DW
- Heat injury rate (tea variety Longjing 43; 10 nM, tea leaves): 30%
- PIABS (tea variety Longjing 43; 10 nM, 3 d after last use, tea leaves): 6.25 ± 0.51c
- PIABS (tea variety Longjing 43; 10 nM, 7 d after last use, tea leaves): 6.43 ± 0.44b
- PIABS (tea variety Longjing 43; 10 nM, 14 d after last use, tea leaves): 14.44 ± 0.59c
- Increase of total amino acid content versus control group (tea variety Longjing 43; 10 nM, high temperature stress): 22%
- Amino acid content (tea variety Longjing 43; 100 nM): 2.21 ± 0.32a % DW
- Heat injury rate (tea variety Longjing 43; 100 nM, tea leaves): 17%
- PIABS (tea variety Longjing 43; 100 nM, 3 d after last use, tea leaves): 8.26 ± 0.63b
- PIABS (tea variety Longjing 43; 100 nM, 7 d after last use, tea leaves): 8.07 ± 0.36a
- PIABS (tea variety Longjing 43; 100 nM, 14 d after last use, tea leaves): 19.29 ± 0.95b
- Increase of total amino acid content versus control group (tea variety Longjing 43; 100 nM, high temperature stress): 33%
- Amino acid content (tea variety Longjing 43; 1,000 nM): 2.20 ± 0.05a % DW
- Heat injury rate (tea variety Longjing 43; 1,000 nM, tea leaves): 15%
- PIABS (tea variety Longjing 43; 1,000 nM, 3 d after last use, tea leaves): 8.48 ± 0.61ab
- PIABS (tea variety Longjing 43; 1,000 nM, 7 d after last use, tea leaves): 8.14 ± 0.70a
- PIABS (tea variety Longjing 43; 1,000 nM, 14 d after last use, tea leaves): 19.85 ± 1.04ab
- Increase of total amino acid content versus control group (tea variety Longjing 43; 1,000 nM, high temperature stress): 33%
- PIABS higher than control group (tea variety Longjing 43; 10,000 nM, 3rd day after use): 108%
- Amino acid content (tea variety Longjing 43; 10,000 nM): 2.23 ± 0.08a % DW
- PIABS higher than control group (tea variety Longjing 43; 10,000 nM, 7th day after use): 48%
- Heat injury rate (tea variety Longjing 43; 10,000 nM, tea leaves): 14%
- PIABS higher than control group (tea variety Longjing 43; 10,000 nM, 14th day after use): 52%
- PIABS (tea variety Longjing 43; 10,000 nM, 3 d after last use, tea leaves): 8.68 ± 0.56a
- PIABS (tea variety Longjing 43; 10,000 nM, 7 d after last use, tea leaves): 8.36 ± 0.51a
- PIABS (tea variety Longjing 43; 10,000 nM, 14 d after last use, tea leaves): 21.97 ± 0.88a
- Increase of total amino acid content versus control group (tea variety Longjing 43; 10,000 nM, high temperature stress): 34%
- Optimum use concentration (accumulation of amino acids in tea leaves) (tea variety Longjing 43; tea leaves, high temperature stress): 100 nM

— patent publication US20240057598A1, “USE OF 2-AMINO-3-METHYLHEXANOIC ACID AS PLANT IMMUNITY INDUCER” (NANJING AGRICULTURAL UNIVERSITY, priority 2020, published 2024)
